The values that follow come from article PMC11823630, “In vitro potentiation of tetracyclines in Pseudomonas aeruginosa by RW01, a new cyclic peptide” (Antimicrobial Agents and Chemotherapy, 2024).

≈ marks a conversion by molar mass, not a printed value. Where a SMILES comes first, the peptide text is derived from it.

Data set [1] concerns C57BL/6J females. Briefly: In vivo cumulative toxicity. The arrangement: species or system mice. The note with it: ip 0.2 mL once a day for 3 days at 500 mg/L; n = 6; observed 7 days. On the procedure:
(§1) To study the acute toxicity of RW01, two groups of n = 6 C57BL/6J females (≈20 g) were treated intraperitoneally (ip) with a single dose of 0.2 mL of 250 and 500 mg/L concentrations of RW01, respectively. After administration and for 7 days, the following indicative signs of pain were assessed: reduced water (dehydration), food intake, isolation, self-mutilation, tremors/spasms, dyspnea, physical activity (increased/reduced), chromodacryorrhea, muscle stiffness, piloerection, teeth grinding, and weight loss. For cumulative toxicity determination, a group of n = 6, 7-week-old healthy C57BL/6J females was treated ip, with a 0.2 mL single dose per day for 3 days at a concentration equivalent to 500 mg/L. After administration and for 7 days, the same indicative signs of pain/toxicity detailed in the acute toxicity studies were evaluated.

In data set [2] the test system is C57BL/6J females. The data set is described as follows: In vivo acute toxicity. The arrangement: species or system mice. The note with it: single ip dose of 0.2 mL at 250 or 500 mg/L; n = 6 per group; observed 7 days. On the procedure: as §1
In data set [3] the test system is PAO1 mutant MIN4_RW01_2, pmrB(F124S). Briefly: MIC, E-test on MHA. The note with it: Pseudomonas aeruginosa, PAO1, read-out: MIC, E-test. It counts as cell-based.
Data set [4] relates to PAO1 mutant MIN1_RW01_2, mexR(G58E), pilB(G326D), hutC(Y181X). Briefly: MIC, E-test on MHA. It counts as cell-based. The note with it: Pseudomonas aeruginosa, PAO1, read-out: MIC, E-test.
For data set [5], the system named is PAO1 mutant MIN2_RW01_2, pmrB(M292T). Briefly: MIC, E-test on MHA. The note with it: Pseudomonas aeruginosa, PAO1, read-out: MIC, E-test. Format: cell-based.
The subject of a further data set is P. aeruginosa 41A. Briefly: MIC, CLSI broth microdilution in BD Phoenix AST Broth. Format: cell-based, Pseudomonas aeruginosa. The note with it: strain 41A.
The next data set deals with P. aeruginosa PAOΔmexZ. The description is as above. Format: cell-based, Pseudomonas aeruginosa. To be noted: strain PAOΔmexZ.
The test system of another data set is P. aeruginosa PAOUW. The data set is described as above. It counts as cell-based, Pseudomonas aeruginosa. To be noted: strain PAOUW; antibiotic with RW01 at 100 mg/L.
The test system of a further data set is P. aeruginosa 125A. The data set is described as above. It counts as cell-based, Pseudomonas aeruginosa. The note with it: strain 125A; antibiotic with RW01 at 100 mg/L.
The test system of another data set is P. aeruginosa 41B. The data set is described as above. It counts as cell-based, Pseudomonas aeruginosa. The note with it: strain 41B.
The test system of a further data set is P. aeruginosa PAOUW∆oprF. The description is as above. Format: cell-based, Pseudomonas aeruginosa.
Another data set deals with P. aeruginosa 125B. Described as above. It counts as cell-based, Pseudomonas aeruginosa. The note with it: strain 125B; antibiotic with RW01 at 100 mg/L.
For a further data set, the system named is P. aeruginosa PAO1. The data set is described as above. Format: cell-based, Pseudomonas aeruginosa. The note with it: strain PAO1; antibiotic with RW01 at 100 mg/L.
The test system of another data set is P. aeruginosa PAOΔmexR. The description is as above. Format: cell-based, Pseudomonas aeruginosa.
For another data set, the system named is P. aeruginosa PAOΔoprM. The data set is described as above. Format: cell-based, Pseudomonas aeruginosa.
Data set [6] relates to PAO1 mutant MIN16_4, nalC(T50P), pilM(Q62X). Briefly: MIC, E-test on MHA. It counts as cell-based. To be noted: Pseudomonas aeruginosa, PAO1, read-out: MIC, E-test.
Data set [7] concerns PAO1 mutant MIN4_RW01_3, pmrB(M292T). Briefly: MIC, E-test on MHA. It counts as cell-based. To be noted: Pseudomonas aeruginosa, PAO1, read-out: MIC, E-test.
Data set [8] deals with PAO1 mutant MIN32_1, mexR(R63H), pilB(N349K), PA0646(V316G). The data set is described as follows: MIC, E-test on MHA. Format: cell-based. To be noted: Pseudomonas aeruginosa, PAO1, read-out: MIC, E-test.
In data set [9] the test system is PAO1 mutant MIN16_1, nalD(T43P). Briefly: MIC, E-test on MHA. Format: cell-based. To be noted: Pseudomonas aeruginosa, PAO1, read-out: MIC, E-test.
Data set [10] relates to PAO1 mutant MIN1_RW01_4, pmrB(F124L). The data set is described as follows: MIC, E-test on MHA. Format: cell-based. To be noted: Pseudomonas aeruginosa, PAO1, read-out: MIC, E-test.
Data set [11] concerns PAO1 mutant MIN2_RW01_4, pmrB(M292T). The data set is described as follows: MIC, E-test on MHA. It counts as cell-based. The note with it: Pseudomonas aeruginosa, PAO1, read-out: MIC, E-test.
Data set [12] concerns PAO1 mutant MIN8_1, nalD(R3C), pilM(Q62X). The data set is described as follows: MIC, E-test on MHA. To be noted: Pseudomonas aeruginosa, PAO1, read-out: MIC, E-test. It counts as cell-based.
In data set [13] the test system is PAO1 mutant MIN4_RW01_4, pmrB(Y98N). The data set is described as follows: MIC, E-test on MHA. Format: cell-based. The note with it: Pseudomonas aeruginosa, PAO1, read-out: MIC, E-test.
For data set [14], the system named is PAO1 mutant MIN2_RW01_1, pmrB(V215L). The data set is described as follows: MIC, E-test on MHA. Format: cell-based. The note with it: Pseudomonas aeruginosa, PAO1, read-out: MIC, E-test.
For data set [15], the system named is PAO1 mutant MIN16_2, nalC(aa9∆4), pilQ(nt46∆1). Briefly: MIC, E-test on MHA. It counts as cell-based. To be noted: Pseudomonas aeruginosa, PAO1, read-out: MIC, E-test.
The test system of data set [16] is PAO1 mutant MIN4_RW01_1, pmrB(R429H). Briefly: MIC, E-test on MHA. It counts as cell-based. To be noted: Pseudomonas aeruginosa, PAO1, read-out: MIC, E-test.
The test system of data set [17] is PAO1 mutant MIN8_4, pilZ(nt18InsT). Briefly: MIC, E-test on MHA. It counts as cell-based. To be noted: Pseudomonas aeruginosa, PAO1, read-out: MIC, E-test.
Data set [18] concerns PAO1 mutant MIN2_RW01_3, parS(V152A). Briefly: MIC, E-test on MHA. It counts as cell-based. To be noted: Pseudomonas aeruginosa, PAO1, read-out: MIC, E-test.
Data set [19] has as its system PAO1 mutant MIN1_RW01_1, pmrB(Y98N). The data set is described as follows: MIC, E-test on MHA. It counts as cell-based. The note with it: Pseudomonas aeruginosa, PAO1, read-out: MIC, E-test.
The test system of data set [20] is PAO1 mutant MIN16_3, nfxB(nt79∆14), pilB(N349K). Briefly: MIC, E-test on MHA. The note with it: Pseudomonas aeruginosa, PAO1, read-out: MIC, E-test. Format: cell-based.
Data set [21] deals with PAO1 mutant MIN8_3, pilZ(nt18InsT). The data set is described as follows: MIC, E-test on MHA. It counts as cell-based. To be noted: Pseudomonas aeruginosa, PAO1, read-out: MIC, E-test.
Data set [22] relates to PAO1 mutant MIN8_2, pilZ(nt18InsT). The data set is described as follows: MIC, E-test on MHA. It counts as cell-based. To be noted: Pseudomonas aeruginosa, PAO1, read-out: MIC, E-test.
The test system of data set [23] is PAO1 mutant MIN1_RW01_3, pmrB(V215L). Briefly: MIC, E-test on MHA. It counts as cell-based. The note with it: Pseudomonas aeruginosa, PAO1, read-out: MIC, E-test.
The next data set concerns PAO1 one-step mutants. Briefly: MIC, Sensititre custom plate, mutants summarised as a group. Format: cell-based, Pseudomonas aeruginosa. The note with it: mutants generated by minocycline alone. On the procedure: Selection of resistant mutants was performed for minocycline with and without RW01 in three independent replicates for wild-type P. aeruginosa reference strain PAO1. Tubes containing Mueller-Hinton broth (MHB) were inoculated and incubated for 24 h at 37°C. Afterward, 1/100 dilution of each tube was incubated at 37°C in MHB to late-exponential growth phase, measured by spectrophotometry at OD600. […] A control plate without antibiotic was included as inoculum control. After overnight incubation, colony counting of each treatment was performed to analyze the generation of resistant population. The mutant prevention concentration (MPC) was defined as the lowest concentration of antibiotic yielding no growth of resistant mutants. Selected mutants were checked for susceptibility profiles by using a Sensititre custom plate (Thermo Fisher Scientific, Massachusetts, USA) for Gram-negative bacteria, following the manufacturer’s instructions.

Setting [24] is: Pseudomonas aeruginosa, agent alone, 37°C, 18–22 h, three biological replicates.
The mark [25] stands for this setting: antibiotic with RW01 at 100 mg/L.
The mark [26] stands for this setting: strain PAOUWΔoprF (printed PAOΔoprF), antibiotic with RW01 at 100 mg/L.
Setting [27] is: strain PAOΔmexR, antibiotic with RW01 at 100 mg/L.
The mark [28] stands for this setting: strain PAOΔoprM, antibiotic with RW01 at 100 mg/L.

On to `N=C(N)NCCC[C@@H]1NC(=O)[C@H]2C[C@H](N)CN2C(=O)[C@H](Cc2c[nH]c3ccccc23)NC(=O)[C@H](CCCNC(=N)N)NC(=O)[C@H]2CCCN2C(=O)[C@H](Cc2c[nH]c3ccccc23)NC1=O` [RW01] (HELM PEPTIDE1{R.W.[dP].R.W.[N[C@H]1C[C@H](C(=O)[*:2])N([*:1])C1]}$PEPTIDE1,PEPTIDE1,1:R1-6:R2$$$V2.0), for which, in the data set with C57BL/6J females [1], the “signs of pain/toxicity, cumulative toxicity” value is reported as “None of the doses tested of RW01 showed any of the 11 symptoms indicative of pain/toxicity”. Also, the “signs of pain/toxicity, acute toxicity” value with C57BL/6J females [2] is “None of the doses tested of RW01 showed any of the 11 symptoms indicative of pain/toxicity”.
The MIC is the least concentration at which growth counts as inhibited. With `CN(C)[C@@H]1C(O)=C(C(N)=O)C(=O)[C@@]2(O)C(O)=C3C(=O)c4c(O)cccc4[C@@](C)(O)[C@H]3C[C@@H]12` [Tetracycline, tetracycline], the MIC in data set [3] amounted to 64 µg/mL (≈ 144 µM); in [4], 256 µg/mL (≈ 576 µM); in data set [5], 192 µg/mL (≈ 432 µM); in the data set on P. aeruginosa 41A (setting [24]), 16 µg/mL; in the data set with P. aeruginosa PAOΔmexZ (setting [24]) it was 16 µg/mL; with P. aeruginosa 41B (setting [24]), 16 µg/mL. In addition, the MIC amounted to 16 µg/mL with P. aeruginosa PAOUW∆oprF (strain PAOUWΔoprF, agent alone, 37°C, 18–22 h, three biological replicates); 16 µg/mL with P. aeruginosa PAOΔmexR (Pseudomonas aeruginosa); 1 µg/mL in the data set with P. aeruginosa PAOΔoprM (Pseudomonas aeruginosa); 64 µg/mL (≈ 144 µM) in [6]; 256 µg/mL (≈ 576 µM) in data set [7]; 256 µg/mL (≈ 576 µM) in data set [8]. Further, the MIC was found to be 256 µg/mL (≈ 576 µM) in data set [9]; 64 µg/mL (≈ 144 µM) in data set [10]; 96 µg/mL (≈ 216 µM) in data set [11]; 256 µg/mL (≈ 576 µM) in data set [12]; 96 µg/mL (≈ 216 µM) in data set [13]; 128 µg/mL (≈ 288 µM) in data set [14]. Besides, the MIC in [15] came out at 96 µg/mL (≈ 216 µM); in [16], 256 µg/mL (≈ 576 µM); in data set [17] it was 64 µg/mL (≈ 144 µM); in data set [18], 256 µg/mL (≈ 576 µM); in data set [19], 192 µg/mL (≈ 432 µM); in data set [20], 128 µg/mL (≈ 288 µM). The MIC in [21] was 64 µg/mL (≈ 144 µM); in data set [22], 256 µg/mL (≈ 576 µM); in [23], 256 µg/mL (≈ 576 µM). Also, the FICI-determined effect result in the data set on P. aeruginosa 41A (setting [25]) is “Additivity (additive effect if 0.5 < FICI ≤ 1.0)”; in the data set on P. aeruginosa PAOΔmexZ (setting [25]), “Synergy (synergistic effect if FICI is ≤0.5)”; with P. aeruginosa PAOUW, “Synergy (synergistic effect if FICI is ≤0.5)”; in the data set on P. aeruginosa 125A it was “Synergy (synergistic effect if FICI is ≤0.5)”; in the data set on P. aeruginosa 41B (setting [25]) it was “Additivity (additive effect if 0.5 < FICI ≤ 1.0)”; in the data set on P. aeruginosa PAOUW∆oprF (setting [26]), “Synergy (synergistic effect if FICI is ≤0.5)”. In addition, the FICI-determined effect result is recorded as “Synergy (synergistic effect if FICI is ≤0.5)” with P. aeruginosa 125B, “Synergy (synergistic effect if FICI is ≤0.5)” with P. aeruginosa PAO1, “Synergy (synergistic effect if FICI is ≤0.5)” with P. aeruginosa PAOΔmexR (setting [27]) and “Additivity (additive effect if 0.5 < FICI ≤ 1.0)” in the data set with P. aeruginosa PAOΔoprM (setting [28]). Also, the FICI is 0.223 with P. aeruginosa PAOΔmexZ (setting [25]); 0.223 in the data set on P. aeruginosa PAOUW∆oprF (setting [26]); 0.445 in the data set with P. aeruginosa 125B; 0.445 with P. aeruginosa PAO1; 0.348 in the data set with P. aeruginosa PAOΔmexR (setting [27]); 0.598 in the data set on P. aeruginosa PAOΔoprM (setting [28]). The “Antibiotic MIC + RW01 100 mg/L” value in the data set with P. aeruginosa PAOΔmexR (strain PAOΔmexR, MIC of the antibiotic with fixed 100 mg/L RW01) amounted to 4 µg/mL; with P. aeruginosa PAOΔoprM (strain PAOΔoprM, MIC of the antibiotic with fixed 100 mg/L RW01) it was 0.5 µg/mL.
With colistin, the “colistin MIC vs wild type” value in the data set with PAO1 one-step mutants is reported as “remained unchanged”.
